Converted amounts (≈) assume the structure as drawn.
How the values were obtained:
[1] = Acute toxicity in Kunming mouse assessed as change in body weight at 2000 mg/kg, po measured for 7 days; format: organism-based; conditions: in vivo, time 7 day
[2] = system: Human immunodeficiency virus 1; assay: Antiviral activity against HIV-1 IIIB harboring K103N/Y181C double mutant infected in human MT4 cells assessed as protection against virus-induced cytotoxicity incubated for 5 days by MTT assay; format: functional, organism-based; conditions: Human immunodeficiency virus 1, IIIB, MT4, 120 h
[3] = AUC(0 to t) in Sprague-Dawley rat at 2 mg/kg, iv measured upto 10 hrs by LC-MS/MS analysis; format: ADME, organism-based; parameters: route intravenous, dose 2 mg/kg, time <=10; conditions: in vivo
[4] = Aqueous solubility of the compound at pH 2.0 by HPLC analysis; format: physicochemical; conditions: buffer
[5] = Selectivity index, ratio of CC50 for human MT4 cells to EC50 for antiviral activity against HIV-1 IIIB infected in human MT4 cells; format: toxicity, cell-based; conditions: MT4 cells (uninfected and infected with HIV-1 IIIB), read-out: Ratio CC50/EC50
[6] = AUC(0 to infinity) in Sprague-Dawley rat at 10 mg/kg, po measured upto 12 hrs by LC-MS/MS analysis; format: ADME, organism-based; parameters: route oral, dose 10 mg/kg, time <=12; conditions: in vivo
[7] = system: Human immunodeficiency virus 1; assay: Antiviral activity against HIV-1 harboring reverse transcriptase Y181C mutant infected in human MT4 cells assessed as protection against virus-induced cytopathic effect incubated for 5 days by MTT assay; conditions: Human immunodeficiency virus 1, MT4, 120 h
[8] = Oral bioavailability in Sprague-Dawley rat at 10 mg/kg measured upto 12 hrs by LC-MS/MS analysis; format: ADME, organism-based; conditions: in vivo
[9] = system: Human immunodeficiency virus 1; assay: Antiviral activity against HIV-1 IIIB infected in human MT4 cells assessed as protection against virus-induced cytotoxicity incubated for 5 days by MTT assay; format: functional, organism-based; conditions: Human immunodeficiency virus 1, IIIB, MT4, 120 h
[10] = system: Human immunodeficiency virus 1; assay: Antiviral activity against HIV1 L1001 infected in human MT4 cells assessed as protection against virus-induced cytopathic effect incubated for 5 days by MTT assay; format: functional, organism-based; conditions: Human immunodeficiency virus 1, L1001, MT4, 120 h
[11] = AUC(0 to t) in Sprague-Dawley rat at 10 mg/kg, po measured upto 12 hrs by LC-MS/MS analysis; format: ADME, organism-based; parameters: route oral, dose 10 mg/kg, time <=12; conditions: in vivo
[12] = system: Human immunodeficiency virus 1; assay: Potency index, ratio of rilpivirine EC50 to test compound EC50 for antiviral activity against HIV-1 harboring reverse transcriptase F227L/V106A mutant infected in human MT4 cells assessed as protection against virus-induced cytopathic effect incubated for 5 days by MTT assay; format: functional; conditions: time 5 day
[13] = Cmax in Sprague-Dawley rat at 2 mg/kg, iv measured upto 10 hrs by LC-MS/MS analysis; format: ADME, organism-based; parameters: route intravenous, dose 2 mg/kg, time <=10; conditions: in vivo
[14] = Aqueous solubility of the compound at pH 7.0 by HPLC analysis; format: physicochemical; conditions: buffer
[15] = AUC(0 to infinity) in Sprague-Dawley rat at 2 mg/kg, iv measured upto 10 hrs by LC-MS/MS analysis; format: ADME, organism-based; parameters: route intravenous, dose 2 mg/kg, time <=10; conditions: in vivo
[16] = system: Human immunodeficiency virus 1; assay: Antiviral activity against HIV-1 harboring reverse transcriptase E138K mutant infected in human MT4 cells assessed as protection against virus-induced cytopathic effect incubated for 5 days by MTT assay; conditions: Human immunodeficiency virus 1, MT4, 120 h
[17] = system: Human immunodeficiency virus 1; assay: Antiviral activity against HIV-1 harboring reverse transcriptase K103N mutant infected in human MT4 cells assessed as protection against virus-induced cytopathic effect incubated for 5 days by MTT assay; conditions: Human immunodeficiency virus 1, MT4, 120 h
[18] = Tmax in Sprague-Dawley rat at 10 mg/kg, po measured upto 12 hrs by LC-MS/MS analysis; format: ADME, organism-based; conditions: in vivo
[19] = system: Human immunodeficiency virus 1; assay: Antiviral activity against HIV-1 harboring reverse transcriptase Y188L mutant infected in human MT4 cells assessed as protection against virus-induced cytopathic effect incubated for 5 days by MTT assay; conditions: Human immunodeficiency virus 1, MT4, 120 h
[20] = Cytotoxicity against human MT4 cells assessed as reduction in cell viability incubated for 5 days by MTT assay; format: toxicity, cell-based; conditions: time 5 day
[21] = system: Human immunodeficiency virus 1; assay: Potency index, ratio of rilpivirine EC50 to test compound EC50 for antiviral activity against HIV-1 harboring reverse transcriptase Y188L mutant infected in human MT4 cells assessed as protection against virus-induced cytopathic effect incubated for 5 days by MTT assay; format: functional; conditions: time 5 day
[22] = Aqueous solubility of the compound at pH 7.4 by HPLC analysis; format: physicochemical; conditions: buffer
[23] = Terminal half life in Sprague-Dawley rat at 10 mg/kg, po measured upto 12 hrs by LC-MS/MS analysis; format: ADME, organism-based; conditions: in vivo, read-out: beta t1/2 (converted)
[24] = target: Human immunodeficiency virus type 1 reverse transcriptase (Human immunodeficiency virus 1, UniProt Q72547); assay: Inhibition of wild type HIV-1 reverse transcriptase using biotin-labelled dNTPs as substrate incubated for 2 hrs by ELISA
[25] = Clearance in Sprague-Dawley rat at 2 mg/kg, iv measured upto 10 hrs by LC-MS/MS analysis; format: ADME, organism-based; conditions: in vivo
[26] = Cmax in Sprague-Dawley rat at 10 mg/kg, po measured upto 12 hrs by LC-MS/MS analysis; format: ADME, organism-based; parameters: route oral, dose 10 mg/kg, time <=12; conditions: in vivo
[27] = Selectivity index, ratio of CC50 for human MT4 cells to EC50 for antiviral activity against HIV-1 IIIB harboring K103N/Y181C double mutant infected in human MT4 cells; format: toxicity, cell-based; conditions: read-out: Ratio CC50/EC50
[28] = system: Human immunodeficiency virus 1; assay: Antiviral activity against HIV-1 harboring reverse transcriptase F227L/V106A mutant infected in human MT4 cells assessed as protection against virus-induced cytopathic effect incubated for 5 days by MTT assay; conditions: Human immunodeficiency virus 1, MT4, 120 h
[29] = Tmax in Sprague-Dawley rat at 2 mg/kg, iv measured upto 10 hrs by LC-MS/MS analysis; format: ADME, organism-based; conditions: in vivo
[30] = Terminal half life in Sprague-Dawley rat at 2 mg/kg, iv measured upto 10 hrs by LC-MS/MS analysis; format: ADME, organism-based; conditions: in vivo, read-out: beta t1/2 (converted)
[31] = system: Human immunodeficiency virus 1; assay: Potency index, ratio of etravirine EC50 to test compound EC50 for antiviral activity against HIV-1 harboring reverse transcriptase F227L/V106A mutant infected in human MT4 cells assessed as protection against virus-induced cytopathic effect incubated for 5 days by MTT assay; format: functional; conditions: time 5 day

Compound	Activity [1]	EC50 [2]	AUC(0-t) at 10 h [3]	solubility [4]	selectivity ratio [5]	AUC(0-inf) [6]	EC50 [7]	bioavailability [8]	EC50 [9]	EC50 [10]	AUC(0-t) at 12 h [11]	Ratio EC50 [12]	Cmax [13]	solubility [14]	AUC(0-inf) [15]	EC50 [16]	EC50 [17]	Tmax [18]	EC50 [19]	CC50 at 120 h [20]	further results
Cc1cc(/C=C/C#N)cc(C)c1Oc1nc(NC2CCN(Cc3ccc(C(N)=O)cc3)CC2)nc2c1COC2	Non-Toxic	11.7 nM	409 ng·h/mL	187 µg/mL (≈ 356 µM)	8450	809 ng·h/mL	6.09 nM	32.1%	2.85 nM	3.9 nM	801 ng·h/mL	8.4	480 ng/mL	25.4 µg/mL (≈ 48.4 µM)	503 ng·h/mL	6.76 nM	2.14 nM	2.12 h	18 nM	24100 nM	Ratio EC50 [21]: 4.4; solubility [22]: 5.24 µg/mL (≈ 9.99 µM); half-life [23]: 1.05 h; IC50 [24]: 140 nM; clearance [25]: 66.3 mL/min/kg; Cmax [26]: 250 ng/mL; selectivity ratio [27]: 2060; EC50 [28]: 9.67 nM; Tmax [29]: 1.98 min; half-life [30]: 0.88 h
Cc1cc(/C=C/C#N)cc(C)c1Oc1nc(NC2CCN(c3ccc(NS(C)(=O)=O)cc3)CC2)nc2c1COC2	Non-Toxic	27.9 nM	903 ng·h/mL	124 µg/mL (≈ 221 µM)	6290	753 ng·h/mL	8.91 nM	16.6%	6.17 nM	12.4 nM	727 ng·h/mL	14	756 ng/mL	10.1 µg/mL (≈ 18 µM)	908 ng·h/mL	7.66 nM	6.91 nM	1 h	28.3 nM	38800 nM	Ratio EC50 [31]: 3.6; solubility [22]: 2.1 µg/mL (≈ 3.75 µM); half-life [23]: 1.47 h; IC50 [24]: 150 nM; clearance [25]: 36.7 mL/min/kg; Cmax [26]: 307 ng/mL; selectivity ratio [27]: 1390; EC50 [28]: 5.79 nM; Tmax [29]: 1.98 min; half-life [30]: 1.11 h

— ChEMBL document CHEMBL5038655, “Development of Novel Dihydrofuro[3,4-d]pyrimidine Derivatives as HIV-1 NNRTIs to Overcome the Highly Resistant Mutant Strains F227L/V106A and K103N/Y181C” (J Med Chem, 2022)
